9 compounds from patent US9862711B2, “Pyrazine derivatives as phosphatidylinositol 3-kinase inhibitors” (NOVARTIS AG, priority 2014, dated 2018) can be followed below.

SMILES strings stand for the structures.

The term IC50 denotes the concentration needed to halve the response being measured.

For the assay, the target named is PI 3-kinase alpha (Homo sapiens (Human), UniProt P42336). Briefly: Kinase Glo Luminescent Kinase Assay (Assay A). Type of assay: biochemical. To be noted: 1 μM ATP, read-out: Assay A PI3Kα IC50. From the text:
Kinase Glo Luminescent Kinase Assay (Kglo) for PI 3-Kinase Alpha (A), Pb 3-Kinase Beta (B), Vps34 (C), PI 4-Kinase Beta (D)
The luminescence-based ATP detection reagent KinaseGlo was obtained from Promega, (Cat. No. V6714, Lot No. 236161) through Catalys, Wallisellen, Switzerland. L-alpha-phosphatidylinositol (PI, liver, bovine) was obtained from Avanti Polar Lipid (Cat. No. 840042C, Lot#LPI-274), Phosphatidylinositol-4,5-bisphosphate (PIP(4,5)2) was also obtained from Avanti Polar Lipid (Cat. No. 840046X). L-α-Phosphatidylserine (PS) was obtained from Avanti Polar Lipid (Cat. No. 840032C), n-Octylglucoside from Avanti Polar Lipid (Cat. No. 10634425001). Luminescence is a well established readout to determine ATP concentrations and can thus be used to follow the activity of many kinases regardless of their substrate. The Kinase Glo Luminescent Kinase Assay (Promega, Madison/WI, USA) is a homogeneous HTS method of measuring kinase activity by quantifying the amount of ATP remaining in solution following a kinase reaction.
50 nL of compound dilutions were dispensed onto black 384-well low volume Non Binding Styrene (NBS) plates (Costar Cat. No. NBS#3676). L-α-phosphatidylinositol (PI), provided as 10 mg/ml solution in methanol, was transferred into a glass tube and dried under a nitrogen beam. It was then resuspended in 3% OctylGlucoside (1-O-n-octyl-beta-D-glucopyranoside) by vortexing and stored at 4° C. 5 μL of a mix of PI/OctylGlucoside with the PI 3-kinase alpha and PI 3-kinase beta subtypes, or Vps34 or PI 4-kinase beta were added. Kinase reactions were started by the addition of 5 μl of an ATP-mix containing in a final volume 10 μL 10 mM TRIS-HCl pH 7.5, 3 mM MgCl2, 50 mM NaCl, 0.05% CHAPS, 1 mM DTT and 1 μM ATP at room temperature. Reactions were stopped with 10 μl of KinaseGlo and plates were read 10 mins later in a Synergy2 reader using an integration time of 0.1 seconds per well. 2.5 μM of NVP-BGT226 (1-(3-(trifluoromethyl)-4-(piperazin-1-yl)phenyl)-8-(6-methoxypyridin-3-yl)-3-methyl-1H-imidazo[4,5-c]quinolin-2(3H)-one) was added to the assay plates to generate the 100% inhibition of the kinase reaction, and the 0% inhibition was given by the solvent vehicle (90% DMSO in water). (1-(3-(trifluoromethyl)-4-(piperazin-1-yl)phenyl)-8-(6-methoxypyridin-3-yl)-3-methyl-1H-imidazo[4,5-c]quinolin-2(3H)-one) was used as a reference compound and included in all assay plates in the form of 16 dilution points in duplicate.
IC50 values of the percentage inhibition of each compound at 8 concentrations (10, 3.0, 1.0, 0.3, 0.1, 0.030, 0.010 and 0.003 μM) n=2 were derived by fitting a sigmoidal dose-response curve to a plot of assay readout over inhibitor concentration as described. All fits were performed with the program XLfit4 (ID Business Solutions, Guildford, UK).
(In Kinase-Glo more light means more ATP remaining.)

PI 3-kinase alpha, sequence (P42336 21-1068): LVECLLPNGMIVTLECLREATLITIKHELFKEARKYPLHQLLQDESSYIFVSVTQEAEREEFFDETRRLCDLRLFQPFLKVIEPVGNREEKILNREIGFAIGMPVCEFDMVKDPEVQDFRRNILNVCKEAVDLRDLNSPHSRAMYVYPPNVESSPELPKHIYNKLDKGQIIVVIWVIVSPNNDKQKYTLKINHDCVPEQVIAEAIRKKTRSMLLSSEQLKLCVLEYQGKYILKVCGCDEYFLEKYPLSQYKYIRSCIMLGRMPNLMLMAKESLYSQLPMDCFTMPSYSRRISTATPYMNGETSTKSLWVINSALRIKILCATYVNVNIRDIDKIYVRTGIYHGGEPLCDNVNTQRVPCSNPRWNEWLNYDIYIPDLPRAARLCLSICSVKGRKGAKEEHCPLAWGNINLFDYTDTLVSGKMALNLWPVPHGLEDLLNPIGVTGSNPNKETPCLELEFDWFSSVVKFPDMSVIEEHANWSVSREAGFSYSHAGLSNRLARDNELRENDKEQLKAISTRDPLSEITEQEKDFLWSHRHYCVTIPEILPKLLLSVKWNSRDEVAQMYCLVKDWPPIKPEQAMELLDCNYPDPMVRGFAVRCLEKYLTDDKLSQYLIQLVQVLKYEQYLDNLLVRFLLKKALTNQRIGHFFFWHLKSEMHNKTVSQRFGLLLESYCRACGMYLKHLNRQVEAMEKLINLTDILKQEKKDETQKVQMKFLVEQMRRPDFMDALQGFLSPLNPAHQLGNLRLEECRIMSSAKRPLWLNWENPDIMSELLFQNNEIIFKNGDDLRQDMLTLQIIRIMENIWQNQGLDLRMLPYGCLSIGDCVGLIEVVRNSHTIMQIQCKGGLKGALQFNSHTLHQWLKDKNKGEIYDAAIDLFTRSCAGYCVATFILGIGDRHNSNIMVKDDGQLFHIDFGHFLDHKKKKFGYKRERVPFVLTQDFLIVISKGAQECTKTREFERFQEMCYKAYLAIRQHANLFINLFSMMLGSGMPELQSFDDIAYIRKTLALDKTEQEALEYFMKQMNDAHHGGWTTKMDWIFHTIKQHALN

Consider `Cc1ncc(-c2cncc(-c3cc(S(=O)(=O)NCCCO)ccc3C)n2)s1` [Example 1, N-(3-Hydroxy-propyl)-4-methyl-3-[6-(2-methyl-thiazol-5-yl)-pyrazin-2-yl]-benzenesulfonamide], for which the IC50 was determined as 190 nM. With `Cc1ccc(S(=O)(=O)NCC(C)(C)O)cc1-c1cncc(-c2cn(C)nc2C)n1` [Example 2, 3-[6-(1,3-Dimethyl-1H-pyrazol-4-yl)-pyrazin-2-yl]-N-(2-hydroxy-2-methyl-propyl)-4-methyl-benzenesulfonamide], the IC50 worked out at 50 nM. Turning to `Cc1ccc(S(=O)(=O)NCCC(C)(C)O)cc1-c1cncc(-c2cn(C)nc2C)n1` [Example 3, 3-[6-(1,3-Dimethyl-1H-pyrazol-4-yl)-pyrazin-2-yl]-N-(3-hydroxy-3-methyl-butyl)-4-methyl-benzenesulfonamide], the IC50 was 80 nM.

With `Cc1ccc(S(=O)(=O)NCC2(C)COC2)cc1-c1cncc(-c2cn(C)nc2C)n1` [Example 4, Trans 3-[6-(1,3-Dimethyl-1H-pyrazol-4-yl)-pyrazin-2-yl]-4-methyl-N-(3-methyl-oxetan-3-ylmethyl)-benzenesulfonamide], the IC50 was 60 nM. In the case of `Cc1ncc(-c2cncc(-c3cc(S(=O)(=O)N[C@H]4CC[C@H](O)CC4)ccc3C)n2)s1` [Example 5, Trans N-(4-Hydroxycyclohexyl)-4-methyl-3-(6-(2-methylthiazol-5-yl)pyrazin-2-yl)benzenesulfonamide], the IC50 was 150 nM. The result for `Cc1ccc(S(=O)(=O)NCC(C)(C)CO)cc1-c1cncc(-c2cn(C)nc2C)n1` [Example 8, 3-[6-(1,3-Dimethyl-1H-pyrazol-4-yl)-pyrazin-2-yl]-N-(3-hydroxy-2,2-dimethyl-propyl)-4-methyl-benzenesulfonamide] reads 60 nM; that for `Cc1ccc(S(=O)(=O)NCCC(C)(C)O)cc1-c1cncc(-c2cnn(CCN3CCOCC3)c2)n1` [Example 9, N-(3-Hydroxy-3-methyl-butyl)-4-methyl-3-{6-[1-(2-morpholin-4-yl-ethyl)-1H-pyrazol-4-yl]-pyrazin-2-yl}-benzenesulfonamide], 260 nM; that for `Cc1ccc(S(=O)(=O)NCCC(C)(C)O)cc1-c1cncc(-c2cn(CCN3CCOCC3)nc2C)n1` [Example 10, N-(3-Hydroxy-3-methyl-butyl)-4-methyl-3-{6-[3-methyl-1-(2-morpholin-4-yl-ethyl)-1H-pyrazol-4-yl]-pyrazin-2-yl}-benzenesulfonamide], 70 nM. On to `Cc1ccc(S(=O)(=O)N[C@H]2CC[C@H](O)CC2)cc1-c1cncc(-c2cccnc2)n1` [Example 11, Trans N-(4-Hydroxy-cyclohexyl)-4-methyl-3-(6-pyridin-3-yl-pyrazin-2-yl)-benzenesulfonamide], for which the IC50 worked out at 400 nM.
